Test results from patent US20190029637A1, “A WEARABLE SENSOR, AND METHOD, TO MONITOR ANTI-COAGULATION THERAPY” (The Regents of the University of California, priority 2016, published 2019).

How the values were obtained:
[1] = Photoacoustic spectra of contaminated heparin in the presence of methylene blue; settings: 5 wt. % contaminated heparin
Text: In one exemplary implementation, the photoacoustic imaging system used for measurements is a Vevo 2100 commercial instrument (Visualsonics). The scanner is equipped with a 21 MHz-centered transducer (LZ250) and a Q-switched Nd:YAG laser. The laser uses an optical parameteric oscillator and second harmonic generator to generate a tunable laser between 680 and 970 nm with a 1 nm step size and a pulse of 4 to 6 ns at 20 Hz. The peak energy is 45±5 mJ at 20 Hz at the source. The full field-of-view is 14-23 mm wide. The acquisition rate is 5 frames per second. The samples were prepared in small tubing fixed in a self-developed phantom holder which was aligned at ˜10 mm under the transducer. The laser energy was calibrated and optimized using the build-in energy power meter and software before measurements. 100% laser energy was used with 21 MHz frequency and the gain was optimized from 10-40 dB to obtain 3D scans at 680-850 nm as well as photoacoustic spectra from 680 to 850 nm.
1×PBS solution was prepared via dissolving one PBS tablet into 200 mL deionized water. The 2 mM methylene blue was prepared fresh by dissolving reagent-grade powder in PBS followed by sonication for 30 minutes at 40 C and then filtering through 0.22 μm. The 0.4 mM methylene blue was prepared by dissolving 2 mM methylene blue with PBS. A batch of OSCS/heparin mixture that simulates OSCS contaminated heparin was prepared at the following steps: 100 μL of 50, 25, 5, 2.5, 0.5, 0.25 μg/mL OSCS, and PBS was added into 100 uL 1000 μg/mL heparin prepared in PBS solution, respectively. The working concentration of OSCS in the above solutions was 25, 12.5, 2.5, 1.25, 0.25, 0.125, 0.025, and 0 μg/mL OSCS, respectively, and the working concentration of heparin is 500 μg/mL. In other words, the heparin solution was contaminated by 5, 2.5, […], 0.05, 0.025, and 0%. The contrast signal of methylene blue/heparin mixture was optimized at the combination of 0.4 mM methylene blue and […]. […]
Data analysis were performed using the scanner's built-in software. […] The average and standard deviation were calculated. […]

Antithrombin = Antithrombin (Homo sapiens, UniProt P01008); settings: cited from earlier work
[2] = Photoacoustic response of nanoparticle-bound methylene blue coating to heparin and protamine; settings: 50 U/mL heparin-treated device, protamine 8 mg/mL
Procedure: The surface charge of these nanoparticle is −23 mV, which is too negative to allow association between the nanoparticle-bound dye and negatively charged heparin. Therefore, the charge of the particle was changed to produce a material that was both stable and responsive to heparin. To tune the nanoparticles, the same were treated with (3-mercaptopropyl) trimethoxysilane (MPTMS) to adjust the zeta potential to −15 mV (SSNP-SH). This material was used with agar gel to create a coating on a catheter tube.
More importantly, the methylene blue on these modified nanoparticles remain responsive to heparin with 51% more photoacoustic signal at 10 U/mL heparin than PBS for 1 h incubation. The signal enhancement was stable after constant imaging at 680 nm for 9 min (RSD<4%) This system was also reversible. When the 50 U/mL-treated device was reversed with protamine (8 mg/mL), the signal decreased by 42% versus no protamine treatment. The higher signal of the heparin-treated hybrid versus PBS-treated hybrid is likely due to interactions between methylene blue and heparin, which increases the photoacoustic signal and decreases diffusion of this complex and free methylene blue into solution.

Antithrombin, sequence (P01008 33-464): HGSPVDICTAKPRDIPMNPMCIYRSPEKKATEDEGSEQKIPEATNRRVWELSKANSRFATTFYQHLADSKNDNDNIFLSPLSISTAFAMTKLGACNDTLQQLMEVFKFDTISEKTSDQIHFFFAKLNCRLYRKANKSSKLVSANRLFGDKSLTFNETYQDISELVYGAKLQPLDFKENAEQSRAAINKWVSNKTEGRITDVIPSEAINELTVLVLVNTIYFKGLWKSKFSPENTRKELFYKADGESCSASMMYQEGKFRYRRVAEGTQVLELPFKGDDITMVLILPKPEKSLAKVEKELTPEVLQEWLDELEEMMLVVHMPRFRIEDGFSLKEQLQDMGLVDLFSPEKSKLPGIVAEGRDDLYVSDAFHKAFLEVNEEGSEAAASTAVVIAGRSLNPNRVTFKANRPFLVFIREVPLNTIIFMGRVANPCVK

Substance | 715 nm peak amplified compared to pure heparin in methylene blue [1] [%] | further results
chondroitin sulfate [CS] | 476 | –
dermatan sulfate [DS] | 475 | –
heparin | – | increase of the activity of antithrombin (Antithrombin): 10^3 fold
oversulfated chondroitin sulfate [OSCS] | 400 | –
protamine sulfate | – | signal decrease versus no protamine treatment [2]: 42%
